Experimental data reported in ChEMBL document CHEMBL4130392, “Eugenol derived immunomodulatory molecules against visceral leishmaniasis” (Eur J Med Chem, 2017).
Calls of active or inactive are those of the source. No cut-off for these calls is given here.

Columns and labels:
Mus musculus [1] = species on record: Mus musculus; test: Induction of innate immune response in splenocytes derived from compound treated BALB/c mouse infected with Leishmania donovani MHOM/IN/AG/83 assessed as reduction in arginase-1 activity using L-arginine by spectrometry relative to control; assay type: functional
Peritoneal macrophage [2] = test: Induction of innate immune response in Leishmania donovani MHOM/IN/AG/83 infected BALB/c mouse peritoneal macrophages assessed as upregulation of IL-12 levels at 2.5 ug/ml after 24 hrs by sandwich ELISA; assay type: functional
RAW264.7 = test: Cytotoxicity against mouse RAW264.7 cells after 48 hrs by MTT assay; assay type: cell-based; settings: RAW264.7, 48 h
Peritoneal macrophage [3] = test: Induction of NO generation in Leishmania donovani MHOM/IN/AG/83 infected BALB/c mouse peritoneal macrophages assessed as increase in nitrite levels at 5 ug/ml after 48 hrs by Griess assay relative to untreated control; assay type: functional
[4] = Ratio of therapeutic index of test compound to Miltefosine by measuring ratio of IC50 for BALB/c mouse peritoneal macrophages to IC50 for Leishmania donovani MHOM/IN/AG/83 amastigotes; assay type: toxicity
[5] = Therapeutic index, ratio of IC50 for mouse RAW264.7 cells to IC50 for Leishmania donovani MHOM/IN/AG/83 promastigotes; assay type: toxicity; settings: read-out: Ratio IC50
Leishmania donovani [6] = test: (§1) Antileishmanial activity against Leishmania donovani MHOM/IN/AG/83 promastigotes infected in BALB/c mouse assessed as reduction of parasite burden in liver at 25 mg/kg, iv administered starting 2 weeks of post infection with five days interval between each treatment and measured after 28 days of treatment by Giemsa staining-based assay; assay type: functional; set-up: scale not given: the % may be the effect or the level left
Peritoneal macrophage [7] = test: Induction of innate immune response in Leishmania donovani MHOM/IN/AG/83 infected BALB/c mouse peritoneal macrophages assessed as upregulation of IL-12 mRNA expression at 2.5 ug/ml after 6 hrs by RT-PCR analysis; assay type: functional, cell-based
Mus musculus [8] = species on record: Mus musculus; test: Induction of innate immune response in splenocytes derived from compound treated BALB/c mouse infected with Leishmania donovani MHOM/IN/AG/83 assessed as reduction in arginase-1 expression by RT-PCR analysis relative to untreated control; assay type: functional
Mus musculus [9] = species on record: Mus musculus; test: Induction of innate immune response in splenocytes derived from compound treated BALB/c mouse infected with Leishmania donovani MHOM/IN/AG/83 assessed as upregulation of IFNgamma mRNA expression levels by RT-PCR analysis; assay type: functional, organism-based
Leishmania donovani [10] = test: Antileishmanial activity against Leishmania donovani MHOM/IN/AG/83 promastigotes after 48 hrs by MTT assay; assay type: functional, organism-based; settings: MHOM/IN/AG/83, 48 h
[11] = Drug uptake in mouse RAW264.7 cells assessed as ratio of drug level (cell lysate)/(drug level (supernatant) + drug level (cell lysate) at 10 ug/ml incubated for 3 hrs by HPLC method; assay type: ADME, cell-based; settings: raw264.7, 3 h
Mus musculus [12] = species on record: Mus musculus; test: Induction of innate immune response in splenocytes derived from compound treated BALB/c mouse infected with Leishmania donovani MHOM/IN/AG/83 assessed as upregulation of IL-12 mRNA expression by RT-PCR analysis; assay type: functional, organism-based
Leishmania donovani [13] = test: as §1, with “spleen” for “liver”; assay type: functional; set-up: scale not given: the % may be the effect or the level left
Mus musculus [14] = species on record: Mus musculus; test: Induction of innate immune response in splenocytes derived from compound treated BALB/c mouse infected with Leishmania donovani MHOM/IN/AG/83 assessed as upregulation of IFNgamma protein expression levels by sandwich ELISA; assay type: functional, organism-based
Peritoneal macrophage [15] = test: Induction of NO generation in Leishmania donovani MHOM/IN/AG/83 infected BALB/c mouse peritoneal macrophages assessed as increase in nitrite levels at 2.5 ug/ml after 48 hrs by Griess assay relative to untreated control; assay type: functional
[16] = Drug uptake in mouse RAW264.7 cells assessed as retention time at 10 ug/ml incubated for 3 hrs by HPLC method; assay type: ADME, cell-based; settings: raw264.7, 3 h
Peritoneal macrophage [17] = test: Induction of NO generation in Leishmania donovani MHOM/IN/AG/83 infected BALB/c mouse peritoneal macrophages assessed as increase in nitrite levels at 1 ug/ml after 48 hrs by Griess assay relative to untreated control; assay type: functional
[18] = Therapeutic index, ratio of EC50 for BALB/c mouse peritoneal macrophages to EC50 for Leishmania donovani MHOM/IN/AG/83 amastigotes; assay type: toxicity; settings: read-out: Ratio EC50
Peritoneal macrophage [19] = test: Induction of innate immune response in Leishmania donovani MHOM/IN/AG/83 infected BALB/c mouse peritoneal macrophage assessed as downregulation of IL-10 levels at 2.5 ug/ml after 24 hrs by sandwich ELISA; assay type: functional
Peritoneal macrophage [20] = test: Induction of innate immune response in Leishmania donovani MHOM/IN/AG/83 infected BALB/c mouse peritoneal macrophages assessed as increase in iNOS2 mRNA expression at 2.5 ug/ml incubated for 6 hrs by RT-PCR analysis relative to control; assay type: functional
Peritoneal macrophage [21] = test: Induction of innate immune response in Leishmania donovani MHOM/IN/AG/83 infected BALB/c mouse peritoneal macrophages assessed as reduction in arginase 1 activity at 1 to 5 ug/ml incubated for 48 hrs using L-arginine and by spectrometry relative to control; assay type: functional
Mus musculus [22] = species on record: Mus musculus; test: Induction of innate immune response in splenocytes derived from compound treated BALB/c mouse infected with Leishmania donovani MHOM/IN/AG/83 assessed as downregulation of IL-10 mRNA expression by RT-PCR analysis; assay type: functional, organism-based
Mus musculus [23] = species on record: Mus musculus; test: Induction of innate immune response in splenocytes derived from compound treated BALB/c mouse infected with Leishmania donovani MHOM/IN/AG/83 assessed as increase in iNOS2 mRNA expression by RT-PCR analysis; assay type: functional
Mus musculus [24] = species on record: Mus musculus; test: Induction of innate immune response in splenocytes derived from compound treated BALB/c mouse infected with Leishmania donovani MHOM/IN/AG/83 assessed as downregulation of IL-10 protein expression by sandwich ELISA; assay type: functional, organism-based
[25] = Binding affinity to plasma membrane of mouse RAW264.7 cells at 10 uM using compound with fluorophoric moiety attached via carbamate linkage by fluorescence microscopy; assay type: ADME, cell-based; settings: raw264.7, 10 µM
[26] = Ratio of therapeutic index of test compound to Amphotericin B by measuring ratio of IC50 for BALB/c mouse peritoneal macrophages to IC50 for Leishmania donovani MHOM/IN/AG/83 amastigotes; assay type: toxicity
Peritoneal macrophage [27] = test: Induction of innate immune response in Leishmania donovani MHOM/IN/AG/83 infected BALB/c mouse peritoneal macrophages assessed as downregulation of IL-10 mRNA expression at 2.5 ug/ml after 6 hrs by RT-PCR analysis; assay type: functional, cell-based
Mus musculus [28] = species on record: Mus musculus; test: Induction of innate immune response in splenocytes derived from compound treated BALB/c mouse infected with Leishmania donovani MHOM/IN/AG/83 by Griess assay; assay type: functional
Leishmania donovani [29] = test: as §1, with “10” for “25”; assay type: functional; set-up: scale not given: the % may be the effect or the level left
Peritoneal macrophage [30] = test: Induction of NO generation in Leishmania donovani MHOM/IN/AG/83 infected BALB/c mouse peritoneal macrophages assessed as nitrite levels after 48 hrs by Griess assay relative to untreated control; assay type: functional
Leishmania donovani [31] = test: as §1, with “spleen” for “liver”, “10” for “25”; assay type: functional; set-up: scale not given: the % may be the effect or the level left
Leishmania donovani [32] = test: Antileishmanial activity against Leishmania donovani MHOM/IN/AG/83 amastigotes infected in BALB/c mouse peritoneal macrophages after 42 hrs by Giemsa staining-based microscopic analysis; assay type: functional, organism-based; settings: MHOM/IN/AG/83, 42 h
Mus musculus [33] = species on record: Mus musculus; test: Induction of innate immune response in splenocytes derived from compound treated BALB/c mouse infected with Leishmania donovani MHOM/IN/AG/83 assessed as upregulation of IL-12 protein expression by sandwich ELISA; assay type: functional, organism-based
Peritoneal macrophage [34] = test: Cytotoxicity against BALB/c mouse peritoneal macrophages after 48 hrs by MTT assay; assay type: cell-based

For `C=CCc1ccc(OC(=O)CCCCCCCCCCCCCCCCC)c(OC)c1`, the “fold change (FC)” value (Mus musculus [1]) was 4, the “fold change (FC)” value (Peritoneal macrophage [2]) was 5 and the IC50 (RAW264.7) was 305 µM. For the same molecule, the “fold change (FC)” value (Peritoneal macrophage [3]) was 8, the Ratio [4] was 10 to 13 and the selectivity ratio [5] was 15.2. The Activity (Leishmania donovani [6]) was 92%, the Activity (Peritoneal macrophage [7]) was “Active” and the “fold change (FC)” value (Mus musculus [8]) was 4. The Activity (Mus musculus [9]) was “Active”, the IC50 (Leishmania donovani [10]) was 20.1 µM and the Ratio [11] was 0.62. The Activity (Mus musculus [12]) was “Active”, the Activity (Leishmania donovani [13]) was 87% and the Activity (Mus musculus [14]) was “Active”. For the same molecule, the “fold change (FC)” value (Peritoneal macrophage [15]) was 7, the Retention_time [16] was 3.173 min and the “fold change (FC)” value (Peritoneal macrophage [17]) was 3. For the same molecule, the selectivity ratio [18] was 82.2, the “fold change (FC)” value (Peritoneal macrophage [19]) was 3 and the “fold change (FC)” value (Peritoneal macrophage [20]) was 8. For the same molecule, the “fold change (FC)” value (Peritoneal macrophage [21]) was 4, the Activity (Mus musculus [22]) was “Active” and the “fold change (FC)” value (Mus musculus [23]) was 8. The Activity (Mus musculus [24]) was “Active”, the Activity [25] was “Active” and the Ratio [26] was 10 to 13. For the same molecule, the Activity (Peritoneal macrophage [27]) was “Active”, the “fold change (FC)” value (Mus musculus [28]) was 8 and the Activity (Leishmania donovani [29]) was 81%. For the same molecule, the Activity (Peritoneal macrophage [30]) was “Dose-dependent effect”, the Activity (Peritoneal macrophage [30]; record 2) was 38.83 µM and the Activity (Leishmania donovani [31]) was 72%. The EC50 (Leishmania donovani [32]) was 4.25 µM, the Activity (Mus musculus [33]) was “Active” and the EC50 (Peritoneal macrophage [34]) was 346 µM.

Work on `C=CCc1ccc(OC(=O)COc2ccccc2)c(OC)c1` yielded an IC50 (RAW264.7) of 396 µM, a selectivity ratio [5] of 13.7 and an IC50 (Leishmania donovani [10]) of 28.9 µM. For the same molecule, the Ratio [11] was 0.73, the Retention_time [16] was 3.867 min and the selectivity ratio [18] was 55.1. For the same molecule, the Activity (Peritoneal macrophage [30]) was “Dose-dependent effect”, the Activity (Peritoneal macrophage [30]; record 2) was 39.02 µM and the EC50 (Leishmania donovani [32]) was 7.17 µM. For the same molecule, the EC50 (Peritoneal macrophage [34]) was 391 µM.

Work on `C=CCc1ccc(O)c(OC)c1` [EUGENOL] yielded an IC50 (RAW264.7) of 527 µM, a selectivity ratio [5] of 1.19 and an IC50 (Leishmania donovani [10]) of 442 µM. It also gave a Ratio [11] of 0.21, a Retention_time [16] of 3.133 min and a selectivity ratio [18] of 2.75. The Activity (Peritoneal macrophage [30]) was “Dose-dependent effect”, the Activity (Peritoneal macrophage [30]; record 2) was 7.45 µM and the EC50 (Leishmania donovani [32]) was 173 µM. The EC50 (Peritoneal macrophage [34]) was 476 µM.

`C=CCc1ccc(OC(=O)CCCCCCCCCCC)c(OC)c1` showed an IC50 (RAW264.7) of 529 µM, a selectivity ratio [5] of 9.36 and an IC50 (Leishmania donovani [10]) of 56.2 µM. For the same molecule, the selectivity ratio [18] was 25.9, the Activity (Peritoneal macrophage [30]) was “Dose-dependent effect” and the Activity (Peritoneal macrophage [30]; record 2) was 34.28 µM. It also gave an EC50 (Leishmania donovani [32]) of 19.6 µM and an EC50 (Peritoneal macrophage [34]) of 498 µM.

For `C=CCc1ccc(OCC)c(OC)c1` [ETHYLEUGENOL], the IC50 (RAW264.7) was 102 µM, the selectivity ratio [5] was 1.43 and the IC50 (Leishmania donovani [10]) was 71.7 µM. For the same molecule, the selectivity ratio [18] was 0.55, the Activity (Peritoneal macrophage [30]) was “Dose-dependent effect” and the Activity (Peritoneal macrophage [30]; record 2) was 10.43 µM. For the same molecule, the EC50 (Leishmania donovani [32]) was 162 µM and the EC50 (Peritoneal macrophage [34]) was 90.5 µM.

For `C=CCc1ccc(OCC=C(C)C)c(OC)c1`, the IC50 (RAW264.7) was 359 µM, the selectivity ratio [5] was 1.48 and the IC50 (Leishmania donovani [10]) was 242 µM. The selectivity ratio [18] was 2.38, the Activity (Peritoneal macrophage [30]) was “Dose-dependent effect” and the Activity (Peritoneal macrophage [30]; record 2) was 8.37 µM. The EC50 (Leishmania donovani [32]) was 157 µM and the EC50 (Peritoneal macrophage [34]) was 372 µM.

`C=CCc1ccc(OC(=O)CCCCC)c(OC)c1` showed an IC50 (RAW264.7) of 517 µM, a selectivity ratio [5] of 3.21 and an IC50 (Leishmania donovani [10]) of 162 µM. For the same molecule, the selectivity ratio [18] was 4.76, the Activity (Peritoneal macrophage [30]) was “Dose-dependent effect” and the Activity (Peritoneal macrophage [30]; record 2) was 18.29 µM. For the same molecule, the EC50 (Leishmania donovani [32]) was 101 µM and the EC50 (Peritoneal macrophage [34]) was 477 µM.
